Measured values from patent publication US20120065187A1 (ALCON RESEARCH, LTD, priority 2008, published 2012).

How the values were obtained:
human H4 = target: T1, human H4 (Homo sapiens, UniProt Q9H3N8); assay: In vitro histamine receptor cell-based assay (aequorin bioluminescence), H4 antagonism; conditions: CHO-K1 cells expressing human H4, aequorin and Gα16; histamine at EC80; read-out: H4 Antagonist EC50
T1 construct: host or cells: CHO-K1
How it was run: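 Antagonism read as loss of aequorin luminescence after histamine (EC80 final) addition, following 15 min room-temperature compound pretreatment of coelenterazine-h-loaded (5 μM) CHO-K1 cells co-expressing human H4 and Gα16. Efficacy given relative to 10 μM JNJ7777120; agonism excluded in separate no-histamine runs.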

human H1 = target: T2, human H1 (Homo sapiens, UniProt P35367); assay: In vitro histamine receptor cell-based assay (aequorin bioluminescence), H1 antagonism; conditions: CHO-K1 cells expressing human H1 and aequorin; histamine at EC80; read-out: H1 Antagonist EC50
T2 construct: host or cells: CHO-K1
T2 sequence (P35367 whole entry): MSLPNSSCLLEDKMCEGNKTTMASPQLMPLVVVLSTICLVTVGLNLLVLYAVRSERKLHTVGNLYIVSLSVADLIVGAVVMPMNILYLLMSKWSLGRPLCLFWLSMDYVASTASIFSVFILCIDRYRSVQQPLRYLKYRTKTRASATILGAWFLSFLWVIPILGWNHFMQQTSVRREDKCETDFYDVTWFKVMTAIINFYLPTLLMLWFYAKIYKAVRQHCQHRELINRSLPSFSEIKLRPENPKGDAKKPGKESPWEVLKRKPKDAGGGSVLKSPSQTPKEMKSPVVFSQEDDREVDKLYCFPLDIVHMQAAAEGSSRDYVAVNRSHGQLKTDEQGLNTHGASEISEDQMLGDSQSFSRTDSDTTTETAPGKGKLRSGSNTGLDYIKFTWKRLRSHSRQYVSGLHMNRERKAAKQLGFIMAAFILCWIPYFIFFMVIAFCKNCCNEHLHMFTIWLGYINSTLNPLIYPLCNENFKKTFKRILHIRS
Protocol: The cell-based assays utilize an aequorin dependent bioluminescence signal. Doubly-transfected, stable CHO-K1 cell lines expressing human H1 or H4, mitochondrion-targeted aequorin, and (H4 only) human G protein Gα16 are obtained from Perkin-Elmer. Cells are maintained in F12 (Ham's) growth medium, containing 10% (vol./vol.) fetal bovine serum, penicillin (100 IU/mL), streptomycin (0.1 mg/mL), zeocin (0.25 mg/mL) and geneticin (0.40 mg/mL). Cell media components are from Invitrogen, Inc. One day prior to assay, the growth medium is replaced with the same, excluding zeocin and geneticin.
For assay preparation, growth medium is aspirated, and cells are rinsed with calcium-free, magnesium-free phosphate-buffered saline, followed by two to three minute incubation in Versene (Invitrogen, Inc.) at 37° C. Assay medium (DMEM:F12 [50:50], phenol-red free, containing 1 mg/mL protease-free bovine serum albumin) is added to collect the released cells, which are then centrifuged. The cell pellet is re-suspended in assay medium, centrifuged once more, and re-suspended in assay medium to a final density of 5×10^6 cells/mL. Coelenterazine-h dye (500 μM in ethanol) is added to a final concentration of 5 μM, and mixed immediately. The conical tube containing the cells is then wrapped with foil to protect the light-sensitive dye. The cells are incubated for four hours further at room temperature (approximately 21° C.) with end-over-end rotation to keep them in suspension.
Just before assay, the dye-loaded cells are diluted to 0.75×10^6 cells/mL (H1 receptor) or 1.5×10^6 cells/mL (H4 receptor) with additional assay medium. Cells are dispensed to 1536 well micro-titer plates at 3 μL/well. To assay receptor antagonism, 60 nl of 100× concentration test compounds in 100% dimethyl sulfoxide (DMSO) are dispensed to the wells, one compound per well, by passive pin transfer, and the plates are incubated for 15 minutes at room temperature. Assay plates are then transferred to a Lumilux bioluminescence plate reader (Perkin-Elmer) equipped with an automated 1536 disposable tip pipette. The pipette dispenses 3 μL/well of agonist (histamine, at twice the final concentration, where final concentration is a previously determined EC80) in assay medium, with concurrent bioluminescence detection. Agonist activity of test compounds is excluded by separate assays that measure response to test compounds immediately, without added histamine agonist.
CCD image capture on the Lumilux includes a 5 second baseline read prior to agonist addition, and generally a 40 second read per plate after agonist addition. A decrease in bioluminescence signal (measured either as area-under-the-curve, or maximum signal amplitude minus minimum signal amplitude) correlates with receptor antagonism in a dose dependent manner. The negative control is DMSO lacking any test compound. For antagonist assays, the positive controls are diphenhydramine (2-Diphenylmethoxy-N,N-dimethylethylamine, 10 μM final concentration, H1 receptor) or JNJ7777120 (1-[(5-Chloro-1H-indol-2-yl)carbonyl]-4-methyl-piperazine, 10 μM final concentration, H4 receptor). Efficacy is measured as a percentage of positive control activity.

Row | EC50 (human H4) | EC50 (human H1) | SMILES
1 | < 10 µM | > 10 µM | Cc1nnc2c(N3CCN(C)CC3)nc3ccc(Cl)cc3n12 [Example 84, 8-chloro-1-methyl-4-(4-methylpiperazin-1-yl)-[1,2,4]triazolo[4,3-a]quinoxaline]
2 | > 10 µM | > 10 µM | Cc1nnc2c(N3CCNCC3)nc3ccc(Cl)cc3n12 [Example 85, 8-chloro-1-methyl-4-(piperazin-1-yl)-[1,2,4]triazolo[4,3-a]quinoxaline]
3 | < 10 µM | > 10 µM | CCc1nnc2c(N3CCN(C)CC3)nc3ccc(Cl)cc3n12 [Example 86, 8-chloro-1-ethyl-4-(4-methylpiperazin-1-yl)-[1,2,4]triazolo[4,3-a]quinoxaline]
4 | < 10 µM | > 10 µM | CC(C)c1nnc2c(N3CCN(C)CC3)nc3ccc(Cl)cc3n12 [Example 87, 8-chloro-1-isopropyl-4-(4-methylpiperazin-1-yl)-[1,2,4]triazolo[4,3-a]quinoxaline]
5 | < 10 µM | > 10 µM | C=Cc1ccc2nc(N3CCN(C)CC3)c3nncn3c2c1 [Example 88, 4-(4-methylpiperazin-1-yl)-8-vinyl-[1,2,4]triazolo[4,3-a]quinoxaline]
6 | < 10 µM | > 10 µM | C=Cc1ccc2nc(N3CCNCC3)c3nncn3c2c1 [Example 89, 4-(piperazin-1-yl)-8-vinyl-[1,2,4]triazolo[4,3-a]quinoxaline]
7 | < 10 µM | > 10 µM | CCc1ccc2nc(N3CCN(C)CC3)c3nncn3c2c1 [Example 90, 8-ethyl-4-(4-methylpiperazin-1-yl)-[1,2,4]triazolo[4,3-a]quinoxaline]
8 | < 10 µM | > 10 µM | CCc1ccc2nc(N3CCNCC3)c3nncn3c2c1 [Example 91, 8-ethyl-4-(piperazin-1-yl)-[1,2,4]triazolo[4,3-a]quinoxaline]
9 | < 10 µM | > 10 µM | Clc1ccc2nc(N3CCNCC3)n3ncnc3c2c1 [Example 92, 9-Chloro-5-(piperazin-1-yl)-[1,2,4]triazolo[1,5-c]quinazoline]
10 | < 10 µM | > 10 µM | Cc1nc2c3cc(Cl)c(Cl)cc3nc(N3CCN(C)CC3)n2n1 [Example 93, 8,9-Dichloro-2-methyl-5-(4-methylpiperazin-1-yl)-[1,2,4]triazolo[1,5-c]quinazoline]
11 | < 10 µM | > 10 µM | Cc1nc2c3cc(Cl)c(Cl)cc3nc(N3CCNCC3)n2n1 [Example 94, 8,9-Dichloro-2-methyl-5-(piperazin-1-yl)-[1,2,4]triazolo[1,5-c]quinazoline]
12 | < 10 µM | > 10 µM | Cc1nc2c3cc(Cl)c(F)cc3nc(N3CCNCC3)n2n1 [Example 96, 9-Chloro-8-fluoro-2-methyl-5-(piperazin-1-yl)-[1,2,4]triazolo[1,5-c]quinazoline]
13 | < 10 µM | > 10 µM | Cc1nc2c3cc(F)c(F)cc3nc(N3CCN(C)CC3)n2n1 [Example 97, 8,9-Difluoro-2-methyl-5-(4-methylpiperazin-1-yl)-[1,2,4]triazolo[1,5-c]quinazoline]
14 | < 10 µM | > 10 µM | Cc1nc2c3cc(F)c(F)cc3nc(N3CCNCC3)n2n1 [Example 98, 8,9-Difluoro-2-methyl-5-(piperazin-1-yl)-[1,2,4]triazolo[1,5-c]quinazoline]
15 | > 10 µM | > 10 µM | Cc1ccc2nc(N3CCNCC3)n3nc(C)nc3c2c1 [Example 100, 2,9-Dimethyl-5-(piperazin-1-yl)-[1,2,4]triazolo[1,5-c]quinazoline]
16 | < 10 µM | > 10 µM | COc1ccc2nc(N3CCN(C)CC3)n3nc(C)nc3c2c1 [Example 101, 9-Methoxy-2-methyl-5-(4-methylpiperazin-1-yl)-[1,2,4]triazolo[1,5-c]quinazoline]

Row | EC50 (human H4) | EC50 (human H1) | SMILES
17 | > 10 µM | > 10 µM | COc1ccc2nc(N3CCNCC3)n3nc(C)nc3c2c1 [Example 102, 9-Methoxy-2-methyl-5-(piperazin-1-yl)-[1,2,4]triazolo[1,5-c]quinazoline]
18 | < 10 µM | > 10 µM | Cc1nc2c3ccc(Cl)cc3nc(N3CCN(C)CC3)n2n1 [Example 105, 8-Chloro-2-methyl-5-(4-methylpiperazin-1-yl)-[1,2,4]triazolo[1,5-c]quinazoline]
19 | < 10 µM | > 10 µM | Cc1nc2c3ccc(Cl)cc3nc(N3CCNCC3)n2n1 [Example 106, 8-Chloro-2-methyl-5-(piperazin-1-yl)-[1,2,4]triazolo[1,5-c]quinazoline]
20 | < 10 µM | > 10 µM | Cc1nc2c3ccc(F)cc3nc(N3CCN(C)CC3)n2n1 [Example 107, 8-Fluoro-2-methyl-5-(4-methylpiperazin-1-yl)-[1,2,4]triazolo[1,5-c]quinazoline]
21 | > 10 µM | > 10 µM | Cc1nc2c3ccc(F)cc3nc(N3CCNCC3)n2n1 [Example 108, 8-Fluoro-2-methyl-5-(piperazin-1-yl)-[1,2,4]triazolo[1,5-c]quinazoline]
22 | < 10 µM | > 10 µM | Cc1nc2c3ccc(C(F)(F)F)cc3nc(N3CCNCC3)n2n1 [Example 110, 2-Methyl-5-(piperazin-1-yl)-8-(trifluoromethyl)-[1,2,4]triazolo[1,5-c]quinazoline]
23 | < 10 µM | > 10 µM | CN1CCN(c2nc3ccc(Cl)cc3c3ncnn23)CC1 [Example 111, 9-chloro-5-(4-methylpiperazin-1-yl)-[1,2,4]triazolo[1,5-c]quinazoline]
24 | < 10 µM | > 10 µM | CCc1nc2c3cc(Cl)ccc3nc(N3CCN(C)CC3)n2n1 [Example 114, 9-Chloro-2-ethyl-5-(4-methylpiperazin-1-yl)-[1,2,4]triazolo[1,5-c]quinazoline]
25 | < 10 µM | > 10 µM | CCc1nc2c3cc(Cl)ccc3nc(N3CCNCC3)n2n1 [Example 115, 9-Chloro-2-ethyl-5-(piperazin-1-yl)-[1,2,4]triazolo[1,5-c]quinazoline]
26 | > 10 µM | > 10 µM | CC(C)c1nc2c3cc(Cl)ccc3nc(N3CCN(C)CC3)n2n1 [Example 116, 9-Chloro-2-isopropyl-5-(4-methylpiperazin-1-yl)-[1,2,4]triazolo[1,5-c]quinazoline]
27 | > 10 µM | > 10 µM | CC(C)c1nc2c3cc(Cl)ccc3nc(N3CCNCC3)n2n1 [Example 117, 9-Chloro-2-isopropyl-5-(piperazin-1-yl)-[1,2,4]triazolo[1,5-c]quinazoline]
28 | > 10 µM | > 10 µM | CN1CCN(c2nc3ccc(Cl)cc3c3nc(Cc4ccccc4)nn23)CC1 [Example 118, 2-Benzyl-9-chloro-5-(4-methylpiperazin-1-yl)-[1,2,4]triazolo[1,5-c]quinazoline]
29 | > 10 µM | > 10 µM | Clc1ccc2nc(N3CCNCC3)n3nc(Cc4ccccc4)nc3c2c1 [Example 119, 2-Benzyl-9-chloro-5-(piperazin-1-yl)-[1,2,4]triazolo[1,5-c]quinazoline]
30 | < 10 µM | > 10 µM | CN1CCN(c2nc3ccc(C(F)(F)F)cc3c3nc(C(F)(F)F)nn23)CC1 [Example 120, 5-(4-methylpiperazin-1-yl)-2,9-bis(trifluoromethyl)-[1,2,4]triazolo[1,5-c]quinazoline]
31 | > 10 µM | > 10 µM | FC(F)(F)c1ccc2nc(N3CCNCC3)n3nc(C(F)(F)F)nc3c2c1 [Example 121, 5-(piperazin-1-yl)-2,9-bis(trifluoromethyl)-[1,2,4]triazolo[1,5-c]quinazoline]
32 | < 10 µM | > 10 µM | Cc1nc2c3cc(C(F)(F)F)c(Cl)cc3nc(N3CCN(C)CC3)n2n1 [Example 122, 8-chloro-2-methyl-5-(4-methylpiperazin-1-yl)-9-(trifluoromethyl)-[1,2,4]triazolo[1,5-c]quinazoline]
